PubChem BioAssay AID328 (DTP/NCI, 2004)
Where “and” joins values, the source holds several entries; their conditions need not be identical. Identical values can stand only once. Inconclusive results and toxic doses are left out.

Test system: BDF1 mice, P388 leukemia ip, median survival T/C
Assay: NCI In Vivo Anticancer Drug Screen. Data for tumor model P388 Leukemia (intraperitoneal) in B6D2F1 (BDF1) mice
Details: endpoint: median survival time, higher = longer survival
How it was run: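 Reported as T/C, where T is the survival measurement in dosed animals and C the same measurement in vehicle controls.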

[1] = dose: 12.5 mg/kg/injection, schedule: Q01DX009 (ip), vehicle: saline
[2] = dose: 100.0 mg/kg/injection, schedule: Q01DX009 (ip), vehicle: Klucel (hydroxypropylcellulose) (HPC)
[3] = dose: 100.0 mg/kg/injection, schedule: Q04DX003 (ip), vehicle: Klucel (hydroxypropylcellulose) (HPC)
[4] = dose: 200.0 mg/kg/injection, schedule: Q01DX009 (ip), vehicle: Klucel (hydroxypropylcellulose) (HPC)
[5] = dose: 200.0 mg/kg/injection, schedule: Q04DX003 (ip), vehicle: Klucel (hydroxypropylcellulose) (HPC)
[6] = dose: 400.0 mg/kg/injection, schedule: Q01DX009 (ip), vehicle: Klucel (hydroxypropylcellulose) (HPC)
[7] = dose: 400.0 mg/kg/injection, schedule: Q04DX003 (ip), vehicle: Klucel (hydroxypropylcellulose) (HPC)
[8] = dose: 100.0 mg/kg/injection, schedule: Q04DX003 (ip), vehicle: saline with Tween-80
[9] = dose: 200.0 mg/kg/injection, schedule: Q04DX003 (ip), vehicle: saline with Tween-80
[10] = dose: 50.0 mg/kg/injection, schedule: Q01DX009 (ip), vehicle: saline with Tween-80
[11] = dose: 100.0 mg/kg/injection, schedule: Q01DX009 (ip), vehicle: saline with Tween-80
[12] = dose: 200.0 mg/kg/injection, schedule: Q01DX009 (ip), vehicle: saline with Tween-80
[13] = dose: 400.0 mg/kg/injection, schedule: Q04DX003 (ip), vehicle: saline with Tween-80

Cc1ccc2scc3c4ccccc4nc-3c2c1
T/C (dose: 2.5 mg/kg/injection, schedule: Q01DX009 (ip), vehicle: saline): 94 % of control
T/C (dose: 5.0 mg/kg/injection, schedule: Q01DX009 (ip), vehicle: saline): 107 % of control
T/C (dose: 10.0 mg/kg/injection, schedule: Q01DX009 (ip), vehicle: saline): 114 % of control
T/C [1]: 113 % of control and 124 % of control
T/C (dose: 20.0 mg/kg/injection, schedule: Q01DX009 (ip), vehicle: saline): 94 % of control
T/C (dose: 25.0 mg/kg/injection, schedule: Q01DX009 (ip), vehicle: saline): 113 % of control and 124 % of control
T/C (dose: 56.25 mg/kg/injection, schedule: Q04DX003 (ip), vehicle: saline): 104 % of control
T/C (dose: 75.0 mg/kg/injection, schedule: Q01DX009 (ip), vehicle: saline): 100 % of control and 104 % of control
T/C (dose: 112.5 mg/kg/injection, schedule: Q01DX009 (ip), vehicle: saline): 96 % of control
T/C (dose: 112.5 mg/kg/injection, schedule: Q04DX003 (ip), vehicle: saline): 113 % of control

c1ccc([P+](CCN2Cc3ccccc3C2)(c2ccccc2)c2ccccc2)cc1
T/C (dose: 3.13 mg/kg/injection, schedule: Q01DX009 (ip), vehicle: saline): 99 % of control
T/C (dose: 6.25 mg/kg/injection, schedule: Q01DX009 (ip), vehicle: saline): 114 % of control
T/C [1]: 105 % of control

C#CC(=O)C1OC2OC(C)(C)OC2C2OC(C)(C)OC12 (stereo unspecified)
T/C (dose: 3.12 mg/kg/injection, schedule: Q01DX005 (ip), vehicle: saline with Tween-80): 100 % of control
T/C (dose: 6.25 mg/kg/injection, schedule: Q01DX005 (ip), vehicle: saline with Tween-80): 107 % of control
T/C (dose: 12.5 mg/kg/injection, schedule: Q01DX005 (ip), vehicle: saline with Tween-80): 107 % of control

CCCCC(=O)OCC(=O)[C@]1(O)Cc2c(O)c3c(c(O)c2[C@@H](OC2CC(NC(=O)C(F)(F)F)C(O)C(C)O2)C1)C(=O)c1c(OC)cccc1C3=O (stereo partly specified)
T/C (dose: 5.0 mg/kg/injection, schedule: Q01DX004 (ip), vehicle: other): 162 % of control
T/C (dose: 10.0 mg/kg/injection, schedule: Q01DX004 (ip), vehicle: other): 155 % of control and 189 % of control
T/C (dose: 13.0 mg/kg/injection, schedule: Q01DX004 (ip), vehicle: saline with Tween-80): 203 % of control
T/C (dose: 20.0 mg/kg/injection, schedule: Q01DX004 (ip), vehicle: other): 288 % of control and 187 % of control
T/C (dose: 21.0 mg/kg/injection, schedule: Q01DX004 (ip), vehicle: saline with Tween-80): 221 % of control
T/C (dose: 21.6 mg/kg/injection, schedule: Q01DX004 (ip), vehicle: saline with Tween-80): 221 % of control
T/C (dose: 25.2 mg/kg/injection, schedule: Q04DX003 (ip), vehicle: other): 175 % of control
T/C (dose: 30.0 mg/kg/injection, schedule: Q01DX004 (ip), vehicle: other): 263 % of control and 351 % of control
T/C (dose: 36.0 mg/kg/injection, schedule: Q01DX004 (ip), vehicle: saline with Tween-80): 353 % of control
T/C (dose: 40.0 mg/kg/injection, schedule: Q01DX004 (ip), vehicle: other): 98 % of control
T/C (dose: 42.0 mg/kg/injection, schedule: Q04DX003 (ip), vehicle: other): 262 % of control
T/C (dose: 50.0 mg/kg/injection, schedule: Q01DX004 (ip), vehicle: other): 86 % of control
T/C (dose: 70.0 mg/kg/injection, schedule: Q04DX003 (ip), vehicle: other): 506 % of control

Cc1ccc(S(=O)(=O)N2CC3CC2CN3Cc2ccccc2)cc1 (stereo unspecified)
T/C [2]: 109 % of control
T/C [3]: 104 % of control
T/C [4]: 104 % of control
T/C [5]: 100 % of control
T/C [6]: 100 % of control
T/C [7]: 95 % of control

Oc1cc(OCCCc2ccc(F)cc2)cc2ccc3ccccc3c12
T/C [8]: 112 % of control
T/C [9]: 86 % of control

CCOC(=O)c1c[nH]c2nc(SC)nc(NC(C)=O)c2c1=O
T/C [10]: 102 % of control
T/C [11]: 87 % of control
T/C [12]: 89 % of control

S=C(N/N=C1\CSCc2ccccc21)Nc1cc(Cl)ccc1Cl
T/C [10]: 90 % of control
T/C [12]: 88 % of control

O=P(CCCl)(OCCCl)N1CCCCC1 (stereo unspecified)
T/C (dose: 50.0 mg/kg/injection, schedule: Q04DX003 (ip), vehicle: saline): 104 % of control
T/C (dose: 100.0 mg/kg/injection, schedule: Q01DX009 (ip), vehicle: saline): 104 % of control
T/C (dose: 100.0 mg/kg/injection, schedule: Q04DX003 (ip), vehicle: saline): 108 % of control
T/C (dose: 200.0 mg/kg/injection, schedule: Q01DX009 (ip), vehicle: saline): 104 % of control
T/C (dose: 400.0 mg/kg/injection, schedule: Q01DX009 (ip), vehicle: saline): 109 % of control

CSCCC(NC(=O)NC(CCSC)C(=O)Oc1ccc([N+](=O)[O-])cc1)C(=O)Oc1ccc([N+](=O)[O-])cc1 (stereo unspecified)
T/C [10]: 87 % of control
T/C [11]: 96 % of control
T/C [12]: 112 % of control

CC1CC=CCC1COC(=O)C(=O)OCC1CC=CCC1C (stereo unspecified)
T/C [8]: 105 % of control
T/C [9]: 105 % of control
T/C [13]: 110 % of control

O=NN(CCCl)C(=O)Nc1ccc2[nH]c3ccccc3c2c1
T/C (dose: 30.0 mg/kg/injection, schedule: Q01DX009 (ip), vehicle: Klucel (hydroxypropylcellulose) (HPC)): 183 % of control
T/C (dose: 45.0 mg/kg/injection, schedule: Q01DX009 (ip), vehicle: Klucel (hydroxypropylcellulose) (HPC)): 175 % of control
T/C (dose: 65.0 mg/kg/injection, schedule: Q01DX009 (ip), vehicle: Klucel (hydroxypropylcellulose) (HPC)): 183 % of control and 192 % of control
T/C (dose: 130.0 mg/kg/injection, schedule: Q01DX009 (ip), vehicle: Klucel (hydroxypropylcellulose) (HPC)): 208 % of control

COc1cc(OC)c(Br)c(OC)c1
T/C [2]: 100 % of control
T/C [3]: 112 % of control
T/C [4]: 100 % of control
T/C [5]: 104 % of control
T/C [6]: 116 % of control
T/C [7]: 100 % of control

Cc1cccc(CSc2ncnc3nc[nH]c23)n1
T/C (dose: 25.0 mg/kg/injection, schedule: Q01DX009 (ip), vehicle: Klucel (hydroxypropylcellulose) (HPC)): 100 % of control
T/C (dose: 25.0 mg/kg/injection, schedule: Q04DX003 (ip), vehicle: Klucel (hydroxypropylcellulose) (HPC)): 104 % of control
T/C (dose: 50.0 mg/kg/injection, schedule: Q01DX009 (ip), vehicle: Klucel (hydroxypropylcellulose) (HPC)): 87 % of control
T/C (dose: 50.0 mg/kg/injection, schedule: Q04DX003 (ip), vehicle: Klucel (hydroxypropylcellulose) (HPC)): 100 % of control
T/C [2]: 91 % of control
T/C [3]: 92 % of control and 104 % of control

CCN(CC)CC(C)Nc1ccc([N+](=O)[O-])c2sc3ccccc3c(=O)c12 (stereo unspecified)
T/C [8]: 200 % of control
T/C (dose: 132.0 mg/kg/injection, schedule: Q04DX003 (ip), vehicle: saline with Tween-80): 209 % of control and 222 % of control
T/C [9]: 272 % of control and 300 % of control and 195 % of control
T/C (dose: 300.0 mg/kg/injection, schedule: Q04DX003 (ip), vehicle: saline with Tween-80): 109 % of control and 118 % of control
T/C [13]: 115 % of control

C[C@H]1/C(=C/C(=O)OCCN(C)C)CC[C@H]2[C@H]1C(=O)C[C@H]1C(C)(C)[C@@H](O)CC[C@]21C
T/C (dose: 4.0 mg/kg/injection, schedule: Q01DX010 (ip), vehicle: saline): 100 % of control
T/C (dose: 8.0 mg/kg/injection, schedule: Q01DX010 (ip), vehicle: saline): 100 % of control
T/C (dose: 16.0 mg/kg/injection, schedule: Q01DX010 (ip), vehicle: saline): 104 % of control
T/C (dose: 32.0 mg/kg/injection, schedule: Q01DX010 (ip), vehicle: saline): 95 % of control and 104 % of control

CN1CCCC(C(=O)c2ccccc2)S1(=O)=O (stereo unspecified)
T/C (dose: 100.0 mg/kg/injection, schedule: Q04DX002 (ip), vehicle: saline with Tween-80): 104 % of control
T/C (dose: 200.0 mg/kg/injection, schedule: Q04DX002 (ip), vehicle: saline with Tween-80): 114 % of control
T/C (dose: 400.0 mg/kg/injection, schedule: Q04DX002 (ip), vehicle: saline with Tween-80): 107 % of control

ClC12CC3CC(CC(C3)C1)C2
T/C (dose: 50.0 mg/kg/injection, schedule: Q04DX003 (ip), vehicle: acetone): 104 % of control
T/C (dose: 100.0 mg/kg/injection, schedule: Q04DX003 (ip), vehicle: acetone): 113 % of control
T/C (dose: 200.0 mg/kg/injection, schedule: Q04DX003 (ip), vehicle: acetone): 109 % of control

O=C(CN1CCCCC1)c1ccc2c(c1)Cc1cc(C(=O)CN3CCCCC3)ccc1O2
T/C [10]: 98 % of control
T/C [11]: 90 % of control
